Earlier results on three molecules are cited in US20110071071A1, “PSMB10: A DIAGNOSIS MARKER AND THERAPEUTIC TARGET OF CHRONIC REJECTION” (priority 2008, published 2011).

Structures are written as SMILES.

The target in data set [1] is T1, chymotrypsin-like activity of the purified 20S proteasome (Homo sapiens, UniProt P28074).
T1 sequence (P28074 60-263): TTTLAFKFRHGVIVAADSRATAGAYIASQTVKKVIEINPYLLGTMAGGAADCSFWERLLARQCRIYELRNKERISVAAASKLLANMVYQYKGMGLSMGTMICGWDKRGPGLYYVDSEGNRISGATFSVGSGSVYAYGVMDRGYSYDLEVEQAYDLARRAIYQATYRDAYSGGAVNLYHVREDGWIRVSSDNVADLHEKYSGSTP
The note with it: in vitro.

The target of the next data set is 20S proteasome (Homo sapiens, UniProt P28072+P28074+Q99436). The settings on record: all three catalytic sites.
Data set [2] relates to murine neuroblastoma cell line Neuro-2a. The settings on record: Neuro-2a cells.

Turning to `O=C(OC1Cc2c(O)cc(O)cc2OC1c1cc(O)c(O)c(O)c1)c1cc(O)c(O)c(O)c1` (single isomer, unassigned; (-)) [(−)-EGCG, (−)-epigallocatechin 3-gallate], the “inhibition of chymotrypsin-like (CT-L) activity of the 20S proteasome” value in data set [1] is reported as “inhibiting the chymotrypsin-like activity”.
Turning to `C[C@@]12OC(=O)[C@]1([C@@H](O)[C@@H]1C=CCCC1)NC(=O)[C@@H]2CCCl` [NPI-0052, salinosporamide A], on 20S proteasome, the 20S proteasome inhibition entry was “highly potent and selective 20S proteasome inhibitor with irreversible activity against all three catalytic sites”.
Consider `CC(=O)N[C@@H](CSC(=O)[C@]1([C@@H](O)C(C)C)NC(=O)[C@H](C)[C@@H]1O)C(=O)O` [lactacystin], for which, in data set [2], the neurite outgrowth result is on record as “induce neurite outgrowth”.
